{"source": "patent US20210186984A1", "about": "“CERTAIN (2S)-N-[(1S)-1-CYANO-2-PHENYLETHYL]-1,4-OXAZEPANE-2-CARBOXAMIDES FOR TREATING ANCA ASSOCIATED VASCULITIDES” (Insmed Incorporated, priority 2018, published 2021)", "key": {"surface PR3": {"test_system": "surface PR3", "experiment": "Fluorescence microscopy of surface PR3 on neutrophils differentiated in presence of INS1007", "type": "cell-based, human", "settings": "differentiation in the presence of 10 μM; neutrophils derived from bone marrow and umbilical cord stem cells (both cell types)", "procedure": "To evaluate the pharmacological effects of INS1007 on surface PR3 expression, total PR3 expression, and NSP activity, stem cells were differentiated to neutrophils in the presence of INS1007 at increasing concentrations. Primary bone marrow (BM) or umbilical cord blood (UC) derived CD34^+ neutrophil progenitor cells (AllCells; Alameda, Calif.) were cultured for 7 days in STEMSPAN™ SFEM media (Stemcell Technologies; Tukwila, WA) supplemented with recombinant human Stem Cell Factor (Peprotech; Rocky Hill, NJ) and recombinant human IL-3 (Peprotech). The cells were differentiated in culture for another 7 days in STEMSPAN™ SFEM media (Stemcell Technologies) with recombinant human Granulocyte Colony Stimulating Factor (Peprotech), plus increasing concentrations of INS1007 (0-10 μM). […]\nIn a separate experiment, neutrophils were harvested, stained for 30 min. with either a mouse anti-PR3 monoclonal antibody (Abcam; Cambridge, Mass.) or a mouse monoclonal IgG isotype control (Abcam), followed by a Cy5-conjugated goat anti-mouse IgG secondary antibody (Abcam), fixed in 4% formaldehyde, and mounted to glass slides with PROLONGTM Diamond Antifade Mountant with DAPI (Thermo Fisher; Waltham, Mass.). Samples were imaged with an Axio fluorescence microscope (Zeiss; Oberkochen, Germany) using constant settings while imaging samples from different treatment conditions."}, "total proteinase 3 (PR3)": {"test_system": "total proteinase 3 (PR3)", "experiment": "Flow cytometry of total (surface and intracellular) PR3 expression in differentiated neutrophils", "type": "cell-based, human", "procedure": "To evaluate the pharmacological effects of INS1007 on surface PR3 expression, total PR3 expression, and NSP activity, stem cells were differentiated to neutrophils in the presence of INS1007 at increasing concentrations. Primary bone marrow (BM) or umbilical cord blood (UC) derived CD34^+ neutrophil progenitor cells (AllCells; Alameda, Calif.) were cultured for 7 days in STEMSPAN™ SFEM media (Stemcell Technologies; Tukwila, WA) supplemented with recombinant human Stem Cell Factor (Peprotech; Rocky Hill, NJ) and recombinant human IL-3 (Peprotech). The cells were differentiated in culture for another 7 days in STEMSPAN™ SFEM media (Stemcell Technologies) with recombinant human Granulocyte Colony Stimulating Factor (Peprotech), plus increasing concentrations of INS1007 (0-10 μM). At the end of the differentiation/treatment period, cells were harvested for analysis.\nDifferentiated neutrophils were harvested for flow cytometry to quantify PR3 expression on the surface of neutrophils (FIGS. 1 and 2) and neutrophil total PR3 expression (FIG. 3)."}}}
{"smiles": "Cn1c(=O)oc2ccc(-c3ccc(C[C@@H](C#N)NC(=O)[C@@H]4CNCCCO4)cc3)cc21", "note": "[INS1007, (2S)-N-{(1S)-1-cyano-2-[4-(3-methyl-2-oxo-2,3-dihydro-1,3-benzoxazol-5-yl)phenyl]ethyl}-1,4-oxazepane-2-carboxamide]", "values": [{"measurement": "surface PR3 (fluorescence microscopy)", "setting": "surface PR3", "value": "markedly reduced"}, {"measurement": "total PR3 levels", "setting": "total proteinase 3 (PR3); bone marrow stem cell-derived neutrophils, not completely concentration-dependent", "value": "significantly reduced"}, {"measurement": "percentage of cells with positive total PR3 expression", "setting": "total proteinase 3 (PR3); neutrophils derived from either umbilical cord blood or bone marrow stem cells", "value": "did not reduce"}, {"measurement": "total PR3 levels", "setting": "total proteinase 3 (PR3); umbilical cord blood stem cell-derived neutrophils", "value": "did not reach statistically significant reduction"}]}
